Results reported in patent US12465578B2, “Substituted alpha-ethyl phenylalkylamines” (Alexander Shulgin Research Institute, Inc., priority 2021, dated 2025).

Experiment: In vitro metabolic stability: percent of compound remaining in human liver microsomes
Type: in vitro ADME
Conditions: for Percent of Compound Remaining Over Time / Dunnett's Multiple Comparison Test Mean Diff. (percent remaining, 2C-B minus compound): human liver microsomes; for rate of metabolism compared with 2C-B: human liver microsomes, 15, 30, 45 and 60 minutes of incubation; for rate of metabolism compared with 2C-B / Dunnett's Multiple Comparison Test Mean Diff. (percent remaining, 2C-B minus compound): 2C-B as control drug; for Dunnett's Multiple Comparison Test Mean Diff. (percent remaining, 2C-B minus compound): one-way ANOVA with Dunnett's post-test
Description: A high-throughput assay is used to determine metabolic stability of disclosed compounds and undeuterated analogs thereof in various matrices, including human liver microsomes, using LCMS analysis to quantify the percent compound remaining after incubation. Briefly, the disclosed compound is mixed with liver microsomes and activated. Following this incubation, acetonitrile is added to terminate the reaction. Then, the samples are centrifuged and the supernatant is dried. The residue is reconstituted and analyzed using liquid chromatography-mass spectrometry. Pharmacokinetic parameters are calculated using a noncompartmental model. The half-life (t1/2) is estimated from the slope of the initial linear range of the logarithmic curve of compound remaining (%) versus time, assuming first order kinetics.
In one such assay of metabolic stability, percent of compound remaining was determined in human liver microsomes after 15, 30, 45, and 60 minutes of incubation, for 2C-B, 2C-B-2-OCD3 (compound I-B-31), and 2C-B-5-OCD3 (compound I-A-31).

| Compound | Percent of Compound Remaining Over Time (0 minutes of incubation) [%] | Percent of Compound Remaining Over Time (15 minutes of incubation) [%] | Percent of Compound Remaining Over Time (30 minutes of incubation) [%] | Percent of Compound Remaining Over Time (45 minutes of incubation) [%] | Percent of Compound Remaining Over Time (60 minutes of incubation) [%] | rate of metabolism compared with 2C-B | Dunnett's Multiple Comparison Test Mean Diff. (percent remaining, 2C-B minus compound) |
| --- | --- | --- | --- | --- | --- | --- | --- |
| COc1cc(CCN)c(OC)cc1Br [Compound 2C-B, 2-(4-bromo-2,5-dimethoxyphenyl)ethanamine, reference compound] | 100.0000 | 104.3970 | 109.8740 | 105.1500 | 116.6050 |  |  |
| Cl.[2H]C([2H])([2H])Oc1cc(Br)c(OC)cc1CCN [Compound 2C-B-2-OCD3, 2-(4-bromo-5-methoxy-2-(methoxy-d3)phenyl)ethan-1-amine hydrochloride] | 100.0000 | 95.8357 | 91.9169 | 98.7307 | 91.6972 | metabolized more quickly than 2C-B | 11.57 |
| Cl.[2H]C([2H])([2H])Oc1cc(CCN)c(OC)cc1Br [Compound 2C-B-5-OCD3, 2-(4-bromo-2-methoxy-5-(methoxy-d3)phenyl)ethan-1-amine hydrochloride] | 100.0000 | 96.2535 | 90.6402 | 90.7021 | 86.9011 | metabolized more quickly than 2C-B | 14.31 |
